Measured values taken from patent publication US20190167589A1, “BIOMIMETIC PROTEOLIPID VESICLE COMPOSITIONS AND USES THEREOF” (The Methodist Hospital, priority 2016, published 2019).

How the values were obtained:
[1] = target: T1, Tyrosyl DNA Phosphodiesterase 2 (TDP2) (Homo sapiens, UniProt O95551); assay: High-throughput screening for TDP2 inhibitory activity; format: biochemical
T1 sequence (O95551 1-362): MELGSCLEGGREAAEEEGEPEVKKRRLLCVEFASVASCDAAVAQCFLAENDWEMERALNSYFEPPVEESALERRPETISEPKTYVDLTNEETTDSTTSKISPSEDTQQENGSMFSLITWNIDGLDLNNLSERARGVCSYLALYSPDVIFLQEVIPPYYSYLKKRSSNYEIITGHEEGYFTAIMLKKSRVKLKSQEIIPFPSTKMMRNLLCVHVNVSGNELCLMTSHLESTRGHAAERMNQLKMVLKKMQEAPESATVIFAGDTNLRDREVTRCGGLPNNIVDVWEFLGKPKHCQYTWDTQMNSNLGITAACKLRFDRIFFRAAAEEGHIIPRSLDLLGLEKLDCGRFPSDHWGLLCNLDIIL

human lung cancer cells = assay: Synergy with Etoposide in killing cancer cells in vitro; format: cell-based
[2] = test system: LPS-induced ear inflammation; assay: Anti-inflammatory efficacy in LPS-induced local ear inflammation; format: in vivo, mice; settings: treatment 30 min after LPS; DXM 5 mg/kg where loaded
Procedure: Explanted mouse ears were washed twice with PBS and embedded in a cryomold in O.C.T. (Tissue-Tek® O.C.T. Compound, Sakura® Finetek), and instantly frozen at −80° C. Ten μm-thick slides were obtained cutting ears block with a cryostat at −20° C. The slides were stored at −20° C. For hematoxylin and eosin (H/E) staining, slides were thawed, hydrated, washed and stained with hematoxylin and eosin (Sigma-Aldrich).
Once cryo-sections were obtained as described in the previous paragraph, immunofluorescence (IF) staining was performed as previously reported (Gelain et al., 2010). Briefly, slides were thawed and blocked with BSA 5% (Sigma-Aldrich) PBS 1× solution. After washing, they were incubated overnight at 4° C. with anti-neutrophil antibody (Alexa Fluor® 647 anti-mouse Ly-6G/Ly-6C (Gr-1) Biolegend. Excess anti-neutrophil antibody was washed out with PBS 1X. Cells nuclei were stained with DAPI. Slides were sealed with ProLong Gold antifade reagent (Life Technologies™). Images were captured with an Eclipse® Ti Inverted Fluorescent Microscope equipped with Hamamatsu Digital Camera C11440 ORCA-Flash 2.8.
Particles were administrated 30 min after LPS injection.
Explanted Mice ears were washed twice with PBS and embedded in a cryomold in O.C.T. (Tissue-Tek® O.C.T. Compound, Sakura® Finetek), and instantly frozen at −80° C. […]

| Structure (SMILES) | TDP2 inhibitory activity [1] | synergy with Etoposide in cancer cell killing (human lung cancer cells) | tissue architecture (H&E staining) [2] |
| --- | --- | --- | --- |
| COc1cc2c(cc1OC)-c1c(OC)c(OC)cc3c1[C@H](C2)N(C)CC3 [Glaucine] | TDP2 inhibitor | able to enhance Etoposide mediated cancer cell killing |  |
| C[C@@H]1C[C@H]2[C@@H]3CCC4=CC(=O)C=C[C@]4(C)[C@@]3(F)[C@@H](O)C[C@]2(C)[C@@]1(O)C(=O)CO [free DXM, Dexamethasone] |  |  | alteration of tissue architecture |
